Data: the NIST ThermoML archive (doi:10.1021/je300345m)

Experiment: xn = mol fraction of the nth substance listed
Conditions: Liquid, Vibrating tube method

OCCNCCO [diethanolamine] + O
mass density [kg/m3]
Conditions	x1 = 0.0684	x1 = 0.1025	x1 = 0.1463	x1 = 0.2045	x1 = 0.2856	x1 = 0.4067	x1 = 0.6066	x1 = 1
298.15 K, 100 kPa	1034	1047.2	1059.5	1071.4	1081	1088	1092.2	1093.6
303.15 K, 100 kPa	1031.8	1044.8	1056.9	1068.5	1077.9	1085	1088.9	1090.4
308.15 K, 100 kPa	1029.7	1042.4	1054.2	1065.6	1074.9	1081.8	1085.8	1087.1
313.15 K, 100 kPa	1027.2	1039.6	1051.3	1062.6	1071.7	1078.7	1082.7	1083.8
318.15 K, 100 kPa	1024.9	1037	1048.4	1059.5	1068.6	1075.5	1079.5	1080.6
323.15 K, 100 kPa	1022.2	1034.2	1045.4	1056.6	1065.3	1072.2	1076.2	1077.4
328.15 K, 100 kPa	1019.5	1031.4	1042.4	1053.2	1062.1	1068.9	1073	1074.1
333.15 K, 100 kPa	1016.6	1028.3	1039.2	1049.9	1058.8	1065.6	1069.6	1070.8
338.15 K, 100 kPa	1013.8	1025.2	1036	1046.5	1055.3	1062.2	1066.3	1067.4
343.15 K, 100 kPa	1010.6	1022	1032.6	1043.1	1051.8	1058.8	1062.9	1064
348.15 K, 100 kPa	1007.5	1018.8	1029.3	1039.7	1048.3	1055.3	1059.4	1060.6
353.15 K, 100 kPa	1004.2	1015.3	1025.8	1036	1044.8	1051.7	1055.9	1057.2
358.15 K, 100 kPa	1000.8	1011.9	1022.3	1032.5	1041.1	1048	1052.4	1053.7
363.15 K, 100 kPa	997.3	1008.3	1018.6	1028.7	1037.2	1044.4	1048.8	1050.1
373.15 K, 700 kPa	990.2	1000.9	1011.5	1021.2	1029.9	1037.2	1041.8	1043.3
383.15 K, 700 kPa	982.3	992.9	1003.3	1012.9	1021.7	1028.9	1033.8	1035.5
393.15 K, 700 kPa	974.2	984.7	995.1	1004.7	1013.5	1020.9	1026	1028.1
403.15 K, 700 kPa	965.8	976.3	986.7	996.2	1005.1	1012.8	1018.2	1020.5
413.15 K, 700 kPa	957.1	967.5	977.9	987.5	996.5	1004.5	1010.2	1012.9
423.15 K, 700 kPa	947.9	958.1	969	978.2	987.2	995.4	1001.7	1004.8

CN(CCO)CCO [N-methyldiethanolamine] + O
mass density [kg/m3]
Conditions	x1 = 0.0609	x1 = 0.0916	x1 = 0.1313	x1 = 0.1848	x1 = 0.2608	x1 = 0.3768	x1 = 0.5764	x1 = 1
298.15 K, 100 kPa	1025.2	1035.6	1043.3	1049.7	1053.6	1052.3	1046	1036
303.15 K, 100 kPa	1022.8	1032.8	1040.9	1046.1	1049.9	1048.6	1042.3	1032.4
308.15 K, 100 kPa	1020.3	1029.9	1037.6	1042.5	1046.2	1044.8	1038.4	1028.6
313.15 K, 100 kPa	1017.7	1026.9	1034.3	1038.8	1042.4	1040.9	1034.6	1024.8
318.15 K, 100 kPa	1014.9	1023.8	1030.8	1034.7	1038.5	1037	1030.8	1021
323.15 K, 100 kPa	1012	1020.6	1027.3	1031.1	1034.6	1033.1	1026.9	1017.2
328.15 K, 100 kPa	1009	1017.2	1023.7	1027.3	1030.6	1029.1	1022.9	1013.3
333.15 K, 100 kPa	1005.9	1013.8	1020.1	1023.6	1026.6	1025	1019	1009.4
338.15 K, 100 kPa	1002.7	1010.3	1016.3	1019.8	1022.5	1020.9	1015	1005.6
343.15 K, 100 kPa	999.3	1006.7	1012.5	1015.9	1018.4	1016.8	1010.9	1001.7
348.15 K, 100 kPa	995.9	1003	1008.5	1011.9	1014.2	1012.6	1006.9	997.7
353.15 K, 100 kPa	992.3	999.2	1004.6	1007.7	1009.9	1008.4	1002.7	993.8
358.15 K, 100 kPa	988.7	995.3	1000.4	1003.5	1005.2	1004.1	998.6	989.9
363.15 K, 100 kPa	984.9	991.3	996.3	999.2	1000.9	999.8	994.4	985.9
373.15 K, 700 kPa	977.2	982.9	987.6	990.7	992	990.6	985.7	978.6
383.15 K, 700 kPa	968.8	974.1	978.5	981.4	982.6	981.4	976.9	970.3
393.15 K, 700 kPa	960.2	965.2	969.3	972.1	973.3	972.2	968.1	962.1
403.15 K, 700 kPa	951.2	955.9	959.8	962.5	963.7	962.9	959.3	953.9
413.15 K, 700 kPa	941.9	946.4	950.1	952.7	954	953.4	950.4	945.6
423.15 K, 700 kPa	931.9	936.1	939.6	942.3	943.6	943.4	940.9	937
